In patent publication US10538496B2, “Methods using HDAC11 inhibitors” (FORMA Therapeutics, Inc., priority 2016, dated 2020):

Legend:
Format in all cases: cell-based
A549 cells [1] = experiment: QRT-PCR assay for stem cell transcription factors; settings: 72 hours
Description: (§1) Given the effects of HDAC11 inhibition on stem-like side population cells, the effects on the expression of stem cell transcription factors was determined using QRT-PCR. A549 or H1650 cells were plated in 60 mm cell culture dishes (120,000 cells). The next day, HDAC11 inhibitors were added at various concentrations and incubated for 72 hours. For the siRNA experiments, A549 cells were plated in 60 mm cell culture dishes (120,000 cells per dish). The siRNAs (Santa Cruz Biotechnologies sc-106896 or ThermoFisher Scientific Cat#4392420) were transfected at a concentration of 100 and 150 pmoles into cells using Oligofectamine reagent (Invitrogen) as per manufacturer's protocol. A non-targeting siRNA (Ambion AM4635) was used as a control for all the transfection experiments. The cells were harvested after 72 hours post transfection. At the end of the treatments, cells were scraped, lysed and total RNA was isolated by RNeasy miniprep kit from Qiagen following the manufacturer's protocol (RNeasy mini kit Cat No. 74104). 1 μg of RNA was converted into cDNA using iScript cDNA synthesis kit (BioRad) in a 20 μl total reaction volume. Levels of mRNA were further analyzed using quantitative real time-PCR (qRT-PCR) that was performed in CFX96 Real time system using BioRad iQ SYBR Green supermix. The reaction was set with 5 μl of SYBR Green, 1 μl of 1 μM Forward primer, 1 μl of 1 μM Reverse primer, 0.5 μl of cDNA and 4.5 μl of water in a total 12 μl reaction. Data was normalized using GAPDH as an internal control and fold change was calculated by 2^−Delta-DeltaCt method. First the Delta-Ct was calculated (Delta-Ct=Ct Gene−Ct GAPDH). Next Delta-Delta-Ct was calculated (Delta-Delta-Ct=Delta-Ct treatment−Delta-Ct control). Finally fold change was calculated by 2^−Delta-DeltaCt.

H1650 cells = experiment: QRT-PCR assay for stem cell transcription factors; settings: 72 hours
Description: as §1

[2] = system: STAT3 and STAT5 phosphorylation in HEL 92.1.7 cells; experiment: STAT3 and STAT5 phosphorylation western blot assay
Description: The effects of selective HDAC11 inhibition on STAT3 and STAT3 phosphorylation in HEL 92.1.7 cells were determined by western blot. Cells were treated with HDAC11 inhibitors and lysed in RIPA buffer (Sigma-Aldrich, St. Louis, Mo.) supplemented with protease inhibitors (Roche, Basel, Switzerland) and phosphatase inhibitors (Sigma P5726). Protein concentrations were determined with Pierce BCA protein assay kit (Thermo Fisher Scientific, Waltham, Mass.). Proteins were separated on a 4-12% Bis-Tris gradient electrophoresis gel (Life Technologies, Carlsbad, Calif.) and transferred onto a nitrocellulose membrane. The membrane was then blocked in either 5% nonfat dry milk or 5% BSA followed by incubation with primary antibodies at 4° C. overnight. Antibodies for p-STAT5 (Abcam 32364), STAT5 (Cell Signaling 9358), p-STAT3 (Cell Signaling 9145) and STAT3 (Cell Signaling 9139) were used. β-actin was used as loading control.

A549 cells [3] = experiment: Cell proliferation assay with combination treatment (MTT); settings: A549, combination with GDC-0449 (Vismodegib) or BMS-833923, 96 hours
Description: (§2) Selective HDAC11 inhibitors may be useful in combination with other targeted agents, including Jak2 inhibitors and Smoothened inhibitors. The effect of combination with the Smoothened inhibitors GDC-0449 (Vismodegib) and BMS-833923 was tested in lung cancer cell lines. A549 and NCI-H2170 cells were obtained from the ATCC. H2170 is a squamous carcinoma cell line. Cell viability was assessed using MTT reagent (Thiazolyl Blue Tetrazolium Bromide) (Sigma-Aldrich). The cells were grown in 96-well plates at a density of 3000-5000 cells/well in triplicates. The HDAC11 inhibitors were added to the adherent cells at different concentrations and treatment was carried out for 96 hours. After treatments, the cells were incubated with the 1 mg/mL MTT reagent at 37° C. for 1 hour. The reaction was terminated with DMSO that solubilizes the formazan product formed. Absorbance at 590 nm was recorded in a plate reader.

NCI-H2170 cells = experiment: as above; settings: H2170, combination with GDC-0449 (Vismodegib) or BMS-833923, 96 hours
Description: as §2

[4] = system: A549 side population (SP) stem-like cells; experiment: Sphere formation assay with stem-like side population NSCLC cells; settings: A549 (KRAS mutation), 0.5-5.0 μM, Day 10
Description: (§3) In order to investigate the role of HDAC11 in the self-renewal of stem-like cancer cells, sphere formation assays were conducted with NSCLC side population (SP) stem-like cells. A549 and NCI-H1650 cells were obtained from the ATCC. Asynchronously growing A549 or NCI-H1650 cells were washed once with phosphate buffered saline (PBS) and harvested using Accutase solution (Sigma Aldrich) and resuspended in DMEM-F12K medium (Gibo, Life Technologies) with 2% fetal bovine serum (FBS) at 1×10^6 cells/ml density. The cells were incubated with 4 μg/ml of Hoechst 33342 dye (Life Technologies) for 90 min at 37° C. in the presence or absence of 1 μM Fumitremorgin C (Sigma-Aldrich) which was used as a control sample to set the gate during sorting. The Hoechst stained cells were sorted using the BD FACSAria cell sorter. The sorted SP cells were plated in 96-well ultra-low adherent plate (Corning Inc) at the cell density of 1000 cells/100 μl/well in stem cell selective medium (DMEM:F12K supplemented with N2 supplement, 10 ng/mL epidermal growth factor (EGF) and 10 ng/ml basic fibroblast growth factor (bFGF) (Sigma-Aldrich) at 37° C. for 7-10 days. The spheres were observed and acquired using EVOS FL microscope system (Life Technologies Inc., USA). The numbers of spheres greater than or equal to 50 μm were counted. To study the effect of the HDAC11 inhibitors, the appropriate concentrations of the compounds were added to the wells on Day 0 and Day 5 and the image acquisition and analysis of the spheres were performed on Day 10. The sphere formation assays were performed twice with triplicates of each treatment in every assay.

[5] = system: NCI-H1650 side population (SP) stem-like cells; experiment: as above; settings: H1650 (EGFR mutation), 0.5-5.0 μM, Day 10
Description: as §3

Structure (SMILES) | expression of Gli1 (mRNA) (A549 cells [1]) | expression of Sox2 (mRNA) (A549 cells [1]) | expression of Yap1 (mRNA) (A549 cells [1]) | expression of Gli1 (mRNA) (H1650 cells) | expression of Sox2 (mRNA) (H1650 cells) | expression of Yap1 (mRNA) (H1650 cells) | STAT3 phosphorylation [2] | STAT5 phosphorylation [2] | cell viability, combination with Smoothened inhibitors (A549 cells [3]) | cell viability, combination with Smoothened inhibitors (NCI-H2170 cells) | growth of stem-like cancer cells (sphere formation) [4] | growth of stem-like cancer cells (sphere formation) [5]
O=C(NO)c1cccc(Nc2nc3cc(Cl)c(Cl)cc3o2)c1 [HDTK010, 3-((5,6-dichlorobenzo[d]oxazol-2-yl)amino)-N-hydroxybenzamide] | decreased expression | decreased expression | decreased expression | decreased expression | decreased expression | decreased expression | inhibited | inhibited | decreased cell viability | decreased cell viability | prevented growth | prevented growth
O=C(NO)c1cccc2c1C[C@]1(CCN(Cc3ccc(Cl)c(C(F)(F)F)c3)C1=O)C2 [HDTK054, (S)-1′-(4-chloro-3-(trifluoromethyl)benzyl)-N-hydroxy-2′-oxo-1,3-dihydrospiro[indene-2,3′-pyrrolidine]-4-carboxamide] | decreased expression | decreased expression | decreased expression | decreased expression | decreased expression | decreased expression | – | – | decreased cell viability | decreased cell viability | prevented growth | prevented growth
